Assay results from patent US20130131321A1, “LIGANDS FOR ANTIBODY AND Fc-FUSION PROTEIN PURIFICATION BY AFFINITY CHROMATOGRAPHY” (GRAFFINITY PHARMACEUTICALS GMBH, priority 2010, published 2013).
Like-named read-outs stand apart in the source and are kept apart here.

Experiments:
[1] = biological target: T1, Bevacizumab (Homo sapiens, UniProt P01857); experiment: Microtiter plate chromatography of resins, Bevacizumab whole IgG (bound, yield, selectivity); format: binding, humanized
T1 construct: fused on or other part: humanised anti-VEGF-A VH domain N-terminal of the gamma-1 constant region (engineered, no UniProt entry)
Method: (§1) Resins were assessed in packed mode by microtiter plate chromatography. For each column, approximately 30 μl of resin were transferred to a 384-well filter plate and sealed with appropriate top frits.
(§2) Columns were equilibrated with 6.7 column volumes (cv) of phosphate buffered saline (0.15 M NaCl, 20 mM sodium phosphate, pH 7.3; PBS) prior to injection. Either 3.3 cv of whole IgGs dissolved at 0.75 mg ml^−1, Fab or Fc fragments dissolved at 0.25 mg ml^−1 (all three in PBS) or host cell proteins (HCP) were injected onto columns. Antibody fragments of Bevacizumab (Fab and Fc) were prepared by cleavage of whole IgG with papain protease (3) according to the protocol of the manufacturer. […] Volumes transferred were spun through columns at 50 g for 1-2 min. During injection of samples, acceleration was reduced to 10 g and centrifugation time increased to 5-10 min. Effluent fractions were collected in 384-well plates and concentrations of protein analyzed by Bradford assay. Protein masses mi, mft and me (see below) were calculated as the product of fraction volume and measured protein concentration.
(§3) The fraction of ‘bound’ protein was calculated as the difference between the total mass of protein injected mi and the mass of protein detected in the flowthrough mft, divided by the total mass of protein injected.
(§4) The ‘yield’ of protein was calculated as the mass of protein eluted me, divided by the mass of protein injected mi.
(§5) The ‘selectivity’ of resins was calculated as the fraction of bound antibody BAb, divided by the fraction of bound host cell proteins BHCP.
(§6) the fraction of ‘bound’ protein and the ‘yield’ of protein were calculated for each resin based on data for whole IgG-antibodies. In the case of Bevacizumab fragments and host cell proteins, only the fraction of ‘bound’ protein is given. Selectivity of resins was calculated from data for Bevacizumab Whole IgG and host cell proteins. Due to limited experimental precision, selectivity was truncated beyond values of 10.

[2] = system: Bevacizumab; experiment: as above; format: binding, humanized
Method: as §1, §2, §3, §4, §5, §6

[3] = system: Tocilizumab; experiment: Microtiter plate chromatography of resins, Tocilizumab (bound, yield); format: binding, humanized
Method: as §1, §2, §3, §4, §6

[4] = system: Palivizumab; experiment: Microtiter plate chromatography of resins, Palivizumab (bound, yield); format: binding, humanized
Method: as §1, §2, §3, §4, §6

[5] = system: human poly-IgG (h-poly-IgG); experiment: Microtiter plate chromatography of resins, human poly-IgG (bound, yield); format: binding
Method: as §1, §2, §3, §4, §6

[6] = system: host cell proteins (HCP); experiment: Microtiter plate chromatography of resins, host cell proteins (bound); format: binding, CHO
Method: Flowthrough from protein A chromatography (referred to as host cell proteins) was derived from the supernatant of antibody-producing CHO cell culture in serum-free medium.
as §1, §2, §3, §6

[7] = fraction of injected whole IgG bound to resin
[8] = mass eluted / mass injected, whole IgG
[9] = fraction of injected protein bound to resin
[10] = fraction of injected host cell proteins bound to resin
[11] = fraction of whole IgG Bevacizumab bound to resin
[12] = mass of whole IgG Bevacizumab eluted / mass injected
[13] = fraction of bound Bevacizumab whole IgG / fraction of bound HCP, truncated beyond values of 10

SMILES | Bevacizumab IgG Bound (%) [1, 7] | Bevacizumab IgG Yield (%) [1, 8] | Selectivity [2] | Tocilizumab Bound (%) [3, 9] | Tocilizumab Yield (%) ([3]; mass eluted / mass injected) | Palivizumab Bound (%) [4, 9] | Palivizumab Yield (%) ([4]; mass eluted / mass injected) | h-poly-IgG Bound (%) [5, 9] | h-poly-IgG Yield (%) ([5]; mass eluted / mass injected) | HCP Bound (%) [6, 10] | Bevacizumab IgG Bound (%) [1, 11] | Bevacizumab IgG Yield (%) [1, 12] | Selectivity [2, 13] | Tocilizumab Bound (%) [3] | Tocilizumab Yield (%) [3] | Palivizumab Bound (%) [4] | Palivizumab Yield (%) [4] | h-poly-IgG Bound (%) [5] | h-poly-IgG Yield (%) [5] | HCP Bound (%) ([6]; host cell proteins)
NCCCNC(=O)c1cccc(C(=O)Nc2nnc(-c3ccco3)s2)c1 [Ligand L70, Isophthalic acid N-(3-aminopropyl)-N′-[5-(2-furyl)-1,3,4-thiadiazol-2-yl]amide] | 100% | 83% | 5.4 | 100% | 100% | 55% | 55% | 64% | 64% | 19% | – | – | – | – | – | – | – | – | – | –
COc1ccc(NC(=O)c2nc3cccnc3[nH]2)cc1C(=O)NCCCN [Ligand L41, 5-(3H-Imidazo[4,5-b]pyridin-2-ylcarboxamido)-2-methoxybenzoic acid (3-amino-1-propyl)amide] | – | – | – | – | – | – | – | – | – | – | 100% | 100% | 10.0 | 91% | 91% | 74% | 71% | 85% | 85% | 9%
COc1ccc(NC(=O)c2cn3ncccc3n2)cc1C(=O)NCCCN [Ligand L48, 5-(Imidazo[1,2-b]pyridazin-2-ylcarboxamido)-2-methoxybenzoic acid (3-amino-1-propyl)amide] | – | – | – | – | – | – | – | – | – | – | 100% | 97% | 10.0 | 87% | 87% | 58% | 54% | 84% | 84% | 8%
NCCCNC(=O)c1cccc(C(=O)Nc2nc3ccccc3s2)c1 [Ligand L72, Isophthalic acid N-(3-aminopropyl)-N′-(benzothiazol-2-yl)amide] | 100% | 83% | 2.5 | 93% | 93% | 91% | 91% | 90% | 90% | 40% | – | – | – | – | – | – | – | – | – | –
COc1ccc(NC(=O)c2nn(C)c3ccccc23)cc1C(=O)NCCOCCOCC(=O)NCCCN [Ligand L60, 8-[2-Methoxy-5-(1-methylindazol-3-ylcarboxamido)phenylcarboxamido]-3,6-dioxaoctanoic acid (3-amino-1-propyl)amide] | – | – | 3.3 | – | – | – | – | – | – | – | 100% | 82% | – | 93% | 93% | – | – | 95% | 94% | 30%
COc1ccc(NC(=O)c2cn3ccsc3n2)cc1C(=O)NCCCNC(=O)CC[C@H](N)C(=O)NCCCNC(=O)c1cc(NC(=O)c2cn3ccsc3n2)ccc1OC [Ligand L64, (S)-1-Aminopropane-1,3-dicarboxylic acid bis{3-[5-(imidazo[2,1-b]thiazol-6-ylcarboxamido)-2-methoxyphenylcarboxamido]propyl}amide] | – | – | – | – | – | – | – | – | – | – | 100% | 93% | 2.8 | 99% | 99% | – | – | 100% | 97% | 36%
COc1ccc(NC(=O)c2cn3ccsc3n2)cc1C(=O)NCCOCCOCC(=O)NCCCC[C@H](NC(=O)COCCOCCNC(=O)c1cc(NC(=O)c2cn3ccsc3n2)ccc1OC)C(=O)NCCCN [Ligand L50, (S)-2,6-Bis{8-[5-(Imidazo[2,1-b]thiazol-6-ylcarboxamido)-2-methoxyphenylcarboxamido]-3,6-dioxaoctanoylamido}hexanoic acid (3-amino-1-propyl)amide] | – | – | – | – | – | – | – | – | – | – | 100% | 92% | 6.9 | 100% | 100% | – | – | 91% | 91% | 15%
